± gives the standard deviation of the averaged measurements.
What was measured:
AZD4547 = compound: COc1cc(CCc2cc(NC(=O)c3ccc(N4CC(C)NC(C)C4)cc3)n[nH]2)cc(OC)c1 [AZD4547]; test: surviving fraction relative to DMSO-only wells; higher = less growth inhibition; settings: exposure time: 5 days
Method in brief: (§1)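 Continuous five-day exposure to inhibitors at 0.5, 1, 5, 10, 50, 100, 500 and 1000 nM started 24 hours after log-phase tumour cell lines were seeded at 250–500 cells per well in 384-well plates. Luminescence was read after 10 minutes at room temperature. Viability is given as surviving fraction, meaning CellTiter-Glo luminescence normalised to the median of DMSO-only wells.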

METHOTREXATE = compound: CN(Cc1cnc2nc(N)nc(N)c2n1)c1ccc(C(=O)N[C@@H](CCC(=O)O)C(=O)O)cc1 [METHOTREXATE]; test: as above; settings: exposure time: 5 days
Method in brief: as §1

| Test System | surviving fraction (AZD4547; 0.5 nM) | surviving fraction (AZD4547; 1 nM) | surviving fraction (AZD4547; 5 nM) | surviving fraction (AZD4547; 10 nM) | surviving fraction (AZD4547; 50 nM) | surviving fraction (AZD4547; 100 nM) | surviving fraction (AZD4547; 500 nM) | surviving fraction (AZD4547; 1000 nM) | surviving fraction (METHOTREXATE; 0.5 nM) | surviving fraction (METHOTREXATE; 1 nM) | surviving fraction (METHOTREXATE; 5 nM) | surviving fraction (METHOTREXATE; 10 nM) | surviving fraction (METHOTREXATE; 50 nM) | surviving fraction (METHOTREXATE; 100 nM) | surviving fraction (METHOTREXATE; 500 nM) | surviving fraction (METHOTREXATE; 1000 nM) |
| --- | --- | --- | --- | --- | --- | --- | --- | --- | --- | --- | --- | --- | --- | --- | --- | --- |
| HSSYII SYNOVIAL | 0.872 ± 0.069 | 0.813 ± 0.031 | 0.606 ± 0.04 | 0.434 ± 0.0065 | 0.295 ± 0.015 | 0.302 ± 0.0015 | 0.259 ± 0.0075 | 0.24 ± 0.013 | 0.995 ± 0.049 | 0.996 ± 0.048 | 1 ± 0.051 | 0.969 ± 0.029 | 0.822 ± 0.035 | 0.834 ± 0.081 | 0.755 ± 0.045 | 0.78 ± 0.043 |
| HT1080 SOFT TISSUE | 1.04 ± 0.048 | 1.03 ± 0.025 | 1.01 ± 0.031 | 1 ± 0.0068 | 0.979 ± 0.016 | 0.9753 ± 0.0087 | 0.936 ± 0.03 | 0.817 ± 0.065 | 1.04 ± 0.021 | 1.06 ± 0.029 | 1.02 ± 0.04 | 0.493 ± 0.043 | 0.253 ± 0.023 | 0.257 ± 0.0082 | 0.259 ± 0.0081 | 0.265 ± 0.03 |
| HU09 BONE | 0.983 ± 0.077 | 0.982 ± 0.16 | 1.03 ± 0.089 | 1.07 ± 0.061 | 0.797 ± 0.066 | 0.856 ± 0.026 | 0.624 ± 0.062 | 0.419 ± 0.031 | 1.07 ± 0.17 | 1 ± 0.055 | 1.15 ± 0.085 | 1.06 ± 0.059 | 0.589 ± 0.031 | 0.459 ± 0.051 | 0.335 ± 0.018 | 0.337 ± 0.043 |
| JIMT1 BREAST | 0.99 ± 0.016 | 1.03 ± 0.04 | 1.018 ± 0.0059 | 1.02 ± 0.0097 | 1.032 ± 0.0075 | 1.07 ± 0.032 | 1.05 ± 0.02 | 1.06 ± 0.03 | 1.02 ± 0.053 | 0.999 ± 0.026 | 0.579 ± 0.035 | 0.533 ± 0.044 | 0.305 ± 0.028 | 0.286 ± 0.029 | 0.285 ± 0.042 | 0.295 ± 0.017 |
| JURKAT HAEMATOPOIETIC AND LYMPHOID TISSUE | 1 ± 0.027 | 1.06 ± 0.036 | 1.01 ± 0.026 | 1.04 ± 0.021 | 0.967 ± 0.034 | 0.951 ± 0.033 | 1.04 ± 0.018 | 1 ± 0.035 | 1.02 ± 0.012 | 1.02 ± 0.035 | 1.02 ± 0.03 | 0.404 ± 0.012 | 0.036 ± 0.001 | 0.0293 ± 0.0015 | 0.0293 ± 0.00058 | 0.031 |
| KPD BONE | 0.961 ± 0.049 | 0.945 ± 0.078 | 0.991 ± 0.094 | 0.984 ± 0.024 | 1 ± 0.067 | 0.956 ± 0.088 | 0.804 ± 0.039 | 0.642 ± 0.036 | 1.06 ± 0.061 | 1.02 ± 0.043 | 1.12 ± 0.035 | 1.09 ± 0.076 | 1.08 ± 0.087 | 1.17 ± 0.021 | 1.02 ± 0.024 | 1.05 ± 0.047 |
| LM7 BONE | 0.914 ± 0.098 | 0.959 ± 0.086 | 1.07 ± 0.044 | 0.982 ± 0.048 | 0.939 ± 0.064 | 0.985 ± 0.12 | 0.762 ± 0.034 | 0.571 ± 0.086 | 1.061 ± 0.0066 | 0.974 ± 0.085 | 1.13 ± 0.015 | 1.17 ± 0.06 | 0.919 ± 0.033 | 0.885 ± 0.065 | 0.699 ± 0.042 | 0.64 ± 0.023 |
| MCF7 BREAST | 0.925 ± 0.062 | 0.918 ± 0.038 | 0.948 ± 0.074 | 0.931 ± 0.036 | 1 ± 0.069 | 0.9181 ± 0.0017 | 0.921 ± 0.066 | 0.924 ± 0.063 | 0.973 ± 0.011 | 0.989 ± 0.05 | 0.734 ± 0.048 | 0.587 ± 0.033 | 0.569 ± 0.011 | 0.588 ± 0.035 | 0.573 ± 0.039 | 0.572 ± 0.024 |
| MDAMB134 BREAST | 1.04 ± 0.28 | 1.04 ± 0.088 | 1.01 ± 0.083 | 0.922 ± 0.078 | 0.973 ± 0.14 | 0.899 ± 0.089 | 1.04 ± 0.028 | 1.05 ± 0.17 | 0.929 ± 0.039 | 0.947 ± 0.04 | 0.899 ± 0.052 | 0.848 ± 0.027 | 1.12 ± 0.21 | 0.858 ± 0.073 | 0.75 ± 0.06 | 0.75 ± 0.011 |
| MDAMB157 BREAST | 0.981 ± 0.036 | 0.967 ± 0.12 | 0.932 ± 0.069 | 0.768 ± 0.035 | 0.642 ± 0.13 | 0.537 ± 0.048 | 0.562 ± 0.1 | 0.374 ± 0.039 | 1.02 ± 0.12 | 0.908 ± 0.012 | 1.05 ± 0.023 | 1.02 ± 0.09 | 0.946 ± 0.01 | 0.947 ± 0.06 | 0.839 ± 0.044 | 0.857 ± 0.076 |
| MDAMB231 BREAST | 0.973 ± 0.018 | 1.02 ± 0.025 | 1.009 ± 0.0064 | 1.02 ± 0.033 | 1.02 ± 0.019 | 1.06 ± 0.032 | 1.06 ± 0.035 | 1.06 ± 0.028 | 0.982 ± 0.023 | 0.967 ± 0.02 | 0.988 ± 0.026 | 0.986 ± 0.026 | 1.02 ± 0.02 | 1.01 ± 0.044 | 0.811 ± 0.017 | 0.509 ± 0.015 |

— the supplement of paper PMC6045584
